Converted amounts (≈) assume the structure as drawn.
Key:
[1] = Solubilization of Compound 34 in microemulsion formulation; type: physicochemical; conditions: microemulsion preconcentrate or microemulsion diluted with water
Excerpt: Microemulsion preconcentrate or diluted microemulsion with water is used. The formulation solubilizes the Compound 34 up to 15% by wt. The specific components for formulation are: […]

in vivo = assay: in vivo; parameters: species or system sprague dowley rats; conditions: Sprague-Dawley, rat
physchem = conditions: aqueous buffer, Compound 34 solubility

For `CC[C@@H]1C[C@]1(NC(=O)[C@@H]1C[C@@]2(CN1C(=O)[C@@H](NC(=O)[C@@H](NC(=O)[C@@H]1CCCCN1C(C)C)C1CCCCC1)C(C)(C)C)C(C)(C)C21CCC1)C(=O)NS(=O)(=O)N1CCCC1` [Compound 34, (5R,8S)-7-[(2S)-2-{[(2S)-2-cyclohexyl-2-({[(2S)-1-isopropylpiperidin-2-yl]carbonyl}amino)acetyl]a-mino}-3,3-dimethylbutanoyl]-N-{(1R,2R)-2-ethyl-1-[(pyrrolidin-1-ylsulfonyl)carbamoyl]cyclo-propyl}-10,10-dimethyl-7-azadispiro[3.0.4.1]decane-8-carboxamide], which “solubilized in microemulsion formulation” value [1] is on record?
Its value is “up to 15 % by wt”.

And the bioavailability (in vivo)?
Its bioavailability is 80 to 95%.

What about the solubility (physchem) of the same molecule?
The solubility was 30 µg/mL (≈ 35 µM).

From patent US9011833B2, “Vitamin E formulations of sulfamide NS3 inhibitors” (priority 2010, dated 2015)
